From patent publication EP4667464A1 (Cyrus Therapeutics Inc., priority 2023, dated 2024)
Where two headings read alike, the source gives them in different places.

How the values were obtained:
SOS1 = target: T1, SOS1 (Homo sapiens, UniProt Q07889); experiment: SOS-catalyzed nucleotide exchange assay (HTRF, SOS1-mediated GTP loading of KRAS G12D); type: biochemical
T1 construct: HIS-SOS1cat (160 nM; Cytoskeleton, US); His (N); purchased Cytoskeleton
T1 sequence (Q07889 564-1049 limits assumed): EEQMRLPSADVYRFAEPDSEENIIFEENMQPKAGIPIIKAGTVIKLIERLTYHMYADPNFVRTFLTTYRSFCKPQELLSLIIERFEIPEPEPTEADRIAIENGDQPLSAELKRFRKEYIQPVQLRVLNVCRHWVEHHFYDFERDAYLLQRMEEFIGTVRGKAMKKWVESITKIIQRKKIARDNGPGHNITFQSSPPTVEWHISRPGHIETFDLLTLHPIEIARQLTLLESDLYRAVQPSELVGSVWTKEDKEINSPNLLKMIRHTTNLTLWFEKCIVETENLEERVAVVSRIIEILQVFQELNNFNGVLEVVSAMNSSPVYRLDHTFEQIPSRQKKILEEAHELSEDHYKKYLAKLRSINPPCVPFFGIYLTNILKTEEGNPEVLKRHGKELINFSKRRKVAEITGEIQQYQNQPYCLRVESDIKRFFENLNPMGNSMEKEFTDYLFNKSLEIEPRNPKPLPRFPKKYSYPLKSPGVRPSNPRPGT

KRAS G12C::SOS1 = target: T2, KRAS G12C::SOS1 (Homo sapiens, UniProt Q07889); experiment: KRAS G12C::SOS1 protein-protein interaction (PPI) inhibition assay (HTRF); type: binding
T2 construct: purchased CISBIO 64KRASG12PEH
T2 sequence (Q07889 1-1333): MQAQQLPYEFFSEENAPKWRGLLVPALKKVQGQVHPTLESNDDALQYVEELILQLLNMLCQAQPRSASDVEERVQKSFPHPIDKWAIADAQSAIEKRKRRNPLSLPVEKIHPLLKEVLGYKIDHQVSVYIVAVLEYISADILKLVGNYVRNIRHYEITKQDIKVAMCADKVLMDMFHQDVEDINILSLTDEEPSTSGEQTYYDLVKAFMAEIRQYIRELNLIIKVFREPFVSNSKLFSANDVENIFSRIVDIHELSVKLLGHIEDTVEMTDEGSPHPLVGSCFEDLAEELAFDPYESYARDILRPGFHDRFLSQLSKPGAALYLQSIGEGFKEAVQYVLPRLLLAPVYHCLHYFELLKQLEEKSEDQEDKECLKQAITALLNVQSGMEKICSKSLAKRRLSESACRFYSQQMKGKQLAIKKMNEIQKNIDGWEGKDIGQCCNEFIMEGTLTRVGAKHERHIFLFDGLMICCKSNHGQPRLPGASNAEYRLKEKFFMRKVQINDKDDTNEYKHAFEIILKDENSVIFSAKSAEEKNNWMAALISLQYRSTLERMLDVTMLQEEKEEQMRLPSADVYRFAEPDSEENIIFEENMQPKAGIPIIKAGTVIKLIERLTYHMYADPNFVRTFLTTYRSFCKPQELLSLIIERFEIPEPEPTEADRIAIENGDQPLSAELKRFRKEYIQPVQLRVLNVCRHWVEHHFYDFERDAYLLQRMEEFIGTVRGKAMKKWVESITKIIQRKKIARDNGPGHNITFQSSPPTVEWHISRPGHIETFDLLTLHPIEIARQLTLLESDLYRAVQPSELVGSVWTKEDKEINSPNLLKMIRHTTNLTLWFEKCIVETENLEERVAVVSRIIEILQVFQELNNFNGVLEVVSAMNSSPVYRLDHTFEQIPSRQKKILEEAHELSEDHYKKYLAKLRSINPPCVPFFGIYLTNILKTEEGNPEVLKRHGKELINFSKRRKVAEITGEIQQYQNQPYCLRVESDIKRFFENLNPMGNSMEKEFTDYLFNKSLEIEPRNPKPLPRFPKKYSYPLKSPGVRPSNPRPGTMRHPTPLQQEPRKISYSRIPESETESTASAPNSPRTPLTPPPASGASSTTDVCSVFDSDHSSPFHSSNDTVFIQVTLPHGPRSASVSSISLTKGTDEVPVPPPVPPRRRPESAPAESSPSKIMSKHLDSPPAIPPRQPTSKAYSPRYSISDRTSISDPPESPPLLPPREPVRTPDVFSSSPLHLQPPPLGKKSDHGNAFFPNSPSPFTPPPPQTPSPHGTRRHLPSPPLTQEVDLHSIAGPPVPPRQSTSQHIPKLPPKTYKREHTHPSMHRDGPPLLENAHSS
Outline: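 Compounds, at eight 3-fold dilutions from 3 µM, were mixed with GTP-loaded Tag1-KRAS G12C, Tag2-SOS1 and a terbium-cryptate donor plus XL665 acceptor antibody pair. After 2 h at room temperature, time-resolved FRET reported the KRAS–SOS1 interaction.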

[1] = tested on: lung cancer cell line NCI-H358 having the KRAS G12C variant; experiment: Cancer cell growth inhibition, 3D spheroids (CellTiter-Glo 3D); type: cell-based; details: Homo sapiens, NCI-H358, 120 h, read-out: H358 cell viability
Protocol: Thereafter, the plate with the cells cultured was adapted to room temperature for 10 minutes, and then 50 µL of CellTiter-Glo® 3D Cell Viability Assay (PROMEGA, G9683) solution was dispensed, and reacted on a horizontal stirrer at a speed of 300 RPM for 30 minutes to induce the cell lysis. […] Thereafter, based on the measured values, the degree of cell growth in the well treated with each compound was calculated when the final cell density value of the well not treated with the test substance was set to 100%.

[2] = GST-KRAS G12D, HIS-SOS1cat, compound 128 pM to 10 µM; read-out: SOS-catalyzed nucleotide exchange assay
[3] = 8 concentrations from 3 µM, three replicates; read-out: KRAS G12C::SOS1 PPI
[4] = 3D spheroids, 0.002-10 µM, 5 days

| SMILES | IC50 (SOS1; [2]) [µM] | IC50 (KRAS G12C::SOS1; [3]) [µM] | IC50 [1, 4] [µM] | IC50 (SOS1; read-out: SOS-catalyzed nucleotide exchange assay; GST-KRAS G12D, HIS-SOS1cat, compound 128 pM to 10 µM) [µM] | IC50 (KRAS G12C::SOS1; read-out: KRAS G12C::SOS1 PPI; 8 concentrations from 3 µM, three replicates) [µM] | IC50 [1] [µM] |
| --- | --- | --- | --- | --- | --- | --- |
| CCn1nncc1-c1cncc(-n2nc(C(=O)N[C@H](C)c3cccc(C(F)(F)F)c3F)cc(C)c2=O)c1 [Example 1-25, 1-[5-(3-ethyltriazol-4-yl)-3-pyridyl]-N-[(1R)-1-[2-fluoro-3-(trifluoromethyl)phenyl]ethyl]-5-methyl-6-oxo-pyridazine-3-carboxamide] | < 0.05 | 0.05 to 0.15 | < 1 |  |  |  |
| Cc1ncc(-n2nc(C(=O)N[C@H](C)c3cccc(C(F)(F)CO)c3F)ccc2=O)cc1-c1cnnn1C [Example 1-29] | 0.05 to 0.15 | < 0.05 | < 1 |  |  |  |
| C[C@@H](NC(=O)c1ccc(=O)n(-c2cnnc(-c3cnnn3C)c2)n1)c1cccc(C(F)(F)CO)c1F [Example 1-37, N-{(1R)-1-[3-(1,1-difluoro-2-hydroxyethyl)-2-fluoro-phenyl]ethyl}-6'-(1-methyl-1H-1,2,3-triazol-5-yl)-6-oxo-6H-[1,4'-bipyridazine]-1,6-dihydro-3-carboxamide] | 0.05 to 0.15 | 0.05 to 0.15 | > 3 |  |  |  |
| Cc1cc(C(=O)N[C@H](C)c2cccc(C(F)(F)CO)c2F)nn(-c2cncc(-c3cnnn3C(C)C)c2)c1=O [Example 1-39, N-{(R)-1-[3-(1,1-difluoro-2-hydroxyethyl)-2-fluorophenyl]ethyl}-1-[5-(1-isopropyl-1H-1,2,3-triazol-5-yl)-3-pyridyl]-5-methyl-6-oxo-1,6-dihydropyridazine-3-carboxamide] | < 0.05 | < 0.05 | < 1 |  |  |  |
| Cc1cc(C(=O)N[C@H](C)c2cccc(C(F)(F)CO)c2F)nn(-c2cncc(-c3cnnn3C3CC3)c2)c1=O [Example 1-40, N-{(R)-1-[3-(1,1-difluoro-2-hydroxyethyl)-2-fluorophenyl]ethyl}-1-[5-(1-cyclopropyl-1H-1,2,3-triazol-5-yl)-3-pyridyl]-5-methyl-6-oxo-1,6-dihydropyridazine-3-carboxamide] | < 0.05 | < 0.05 | < 1 |  |  |  |
| CCc1cc(C(=O)N[C@H](C)c2cccc(C(F)(F)CO)c2F)nn(-c2cncc(-c3cnnn3C3CC3)c2)c1=O [Example 1-42, N-{(R)-1-[3-(1,1-difluoro-2-hydroxyethyl)-2-fluorophenyl]ethyl}-1-[5-(1-cyclopropyl-1H-1,2,3-triazol-5-yl)-3-pyridyl]-5-ethyl-6-oxo-1,6-dihydropyridazine-3-carboxamide] | < 0.05 | < 0.05 | < 1 |  |  |  |
| C[C@@H](NC(=O)c1ccc(=O)n(-c2cnc(N3CCOCC3)c(-c3cnnn3C)c2)n1)c1cccc(C(F)(F)F)c1F [Example 1-46, N-{(R)-1-[2-fluoro-3-(trifluoromethyl)phenyl]ethyl}-1-[5-(1-methyl-1H-1,2,3-triazol-5-yl)-6-morpholino-3-pyridyl]-6-oxo-1,6-dihydropyridazine-3-carboxamide] |  |  |  | 0.05 to 0.15 | 0.05 to 0.15 | < 1 |
| C[C@@H](NC(=O)c1cc(CO)c(=O)n(-c2cncc(-c3cnnn3C)c2)n1)c1cccc(C(F)(F)F)c1F [Example 1-61, N-{(R)-1-[2-fluoro-3-(trifluoromethyl)phenyl]ethyl}-5-(hydroxymethyl)-1-[5-(1-methyl-1H-1,2,3-triazol-5-yl)-3-pyridyl]-6-oxo-1,6-dihydropyridazine-3-carboxamide] | 0.05 to 0.15 | < 0.05 | < 1 |  |  |  |

Now from value to compound, other results behind:

| IC50 (SOS1; [2]) [µM] | IC50 (KRAS G12C::SOS1; [3]) [µM] | IC50 [1, 4] [µM] | SMILES | IC50 (SOS1; read-out: SOS-catalyzed nucleotide exchange assay; GST-KRAS G12D, HIS-SOS1cat, compound 128 pM to 10 µM) [µM] | IC50 (KRAS G12C::SOS1; read-out: KRAS G12C::SOS1 PPI; 8 concentrations from 3 µM, three replicates) [µM] | IC50 [1] [µM] |
| --- | --- | --- | --- | --- | --- | --- |
| < 0.05 | < 0.05 | < 1 | C[C@@H](NC(=O)c1ccc(=O)n(-c2cncc(-c3cnnn3C)c2)c1)c1cccc(C(F)(F)F)c1F [Example 1-24, N-[(1R)-1-[2-fluoro-3-(trifluoromethyl)phenyl]ethyl]-1-[5-(3-methyltriazol-4-yl)-3-pyridyl]-6-oxo-pyridine-3-carboxamide] |  |  |  |
| 0.05 to 0.15 | 0.05 to 0.15 | < 1 | Cc1ncc(-n2nc(C(=O)N[C@H](C)c3cccc(C(F)(F)F)c3F)ccc2=O)cc1-c1cnnn1C [Example 1-26, N-[(1R)-1-[2-fluoro-3-(trifluoromethyl)phenyl]ethyl]-1-[6-methyl-5-(3-methyltriazol-4-yl)-3-pyridyl]-6-oxo-pyridazine-3-carboxamide] |  |  |  |
| < 0.05 | < 0.05 | < 1 | C[C@@H](NC(=O)c1ccc(=O)n(-c2cncc(-c3cnnn3C3CC3)c2)n1)c1cccc(C(F)(F)F)c1F [Example 1-50, N-[(1R)-1-[2-fluoro-3-(trifluoromethyl)phenyl]ethyl]-1-[5-(1-cyclopropyl-1H-1,2,3-triazol-5-yl)-3-pyridyl]-6-oxo-pyridazine-3-carboxamide] |  |  |  |
| < 0.05 | 0.05 to 0.15 | < 1 | CC(C)n1nncc1-c1cncc(-n2nc(C(=O)N[C@H](C)c3cccc(C(F)(F)CO)c3F)ccc2=O)c1 [Example 1-52, N-[(1R)-1-[3-(1,1-difluoro-2-hydroxy-ethyl)-2-fluoro-phenyl]ethyl]-1-[5-(1-isopropyl-1H-1,2,3-triazol-5-yl)-3-pyridyl]-6-oxo-pyridazine-3-carboxamide] |  |  |  |
| < 0.05 | < 0.05 | < 1 | C[C@@H](NC(=O)c1ccc(=O)n(-c2cncc(-c3cnnn3C3CC3)c2)n1)c1cccc(C(F)(F)CO)c1F [Example 1-53, N-[(1R)-1-[3-(1,1-difluoro-2-hydroxy-ethyl)-2-fluoro-phenyl]ethyl]-1-[5-(1-cyclopropyl-1H-1,2,3-triazol-5-yl)-3-pyridyl]-6-oxo-pyridazine-3-carboxamide] |  |  |  |
| < 0.05 | 0.05 to 0.15 | < 1 | C[C@@H](NC(=O)c1ccc(=O)n(-c2cncc(-c3cnnn3C3CCC3)c2)n1)c1cccc(C(F)(F)F)c1F [Example 1-54, N-[(1R)-1-[2-fluoro-3-(trifluoromethyl)phenyl]ethyl]-1-[5-(1-cyclobutyl-1H-1,2,3-triazol-5-yl)-3-pyridyl]-6-oxo-pyridazine-3-carboxamide] |  |  |  |
| < 0.05 | < 0.05 | < 1 | [2H]C([2H])([2H])n1nncc1-c1cncc(-n2nc(C(=O)N[C@H](C)c3cc(N)cc(C(F)(F)F)c3)ccc2=O)c1 [Example 1-58] |  |  |  |
